From patent US20110160279A1, “METHODS FOR TREATMENT AND PREVENTION OF OTOTOXICITY BY siRNA” (BOARD OF TRUSTEES OF SOUTHERN ILLINOIS UNIVERSITY, priority 2007, published 2011) come the findings set out here.

“Also recorded” adds a separate entry of the source.

One data set deals with outer hair cells. As to the kind of experiment: Outer hair cell loss by scanning electron microscopy. The class given is in vivo, rat. The note with it: cisplatin 16 mg/kg i.p., vehicle-pretreated cochlea, 3 days, N=3. Here is the method: Immediately after completion of follow-up ABRs, deeply sedated rats were euthanized, their cochleae harvested and processed as described in (Kamimura et al, 1999). Sputter coated cochleae were then viewed and photographed with a Hitachi S-500 scanning electron microscope (Hitachi Ltd., Tokyo, Japan).
Hair cell counts were performed using a modified version of the method used by (Korver et al. 2002). Two representative areas of the basal turn and hook portion were photographed. In each area, inner or outer hair cells were counted in an area that was 10 pillar cell heads in length.
The results were shown, as the average survival percentage rates compared to the control group. Statistical analysis was performed using Student's t-test.
Five rats were administered either vehicle or TRPV1 siRNA (3 μl) by round window application. The rats served as their own controls since one cochlea was treated with vehicle and the other with siRNA.

The next data set relates to UB-OC1 cells. The data set can be described thus: Cisplatin-induced ROS generation by DCF2DA fluorescence in UB-OC1 cells. The class given is cell-based, mouse. Conditions: cisplatin 2.5 μM, 30 minute.
The test system of a further data set is TRPV1 protein. As to the kind of experiment: Western blot of TRPV1 protein in whole cochlear lysates. The class given is in vivo, rat. Conditions: 72 h following cisplatin. From the text:
Cochleae were homogenized in ice-cold TRIS 50:10:100. The whole tissue lysate was then used for Western blotting. After transfer to nitrocellulose membrane TRPV1 protein was visualized by chemiluminesence detection (ECL, Amersham, Piscataway, N.J.).

Another data set concerns p22. As to the kind of experiment: Real time RT-PCR of p22 transcript in rat cochlea. The class given is in vivo. The note with it: cisplatin (data not shown). The procedure: (§1) RNA was isolated by adding 1 ml TR1 reagent to 100 mg of cochlear or cortical tissue or 0.5 ml TR1 reagent (Sigma, St. Louis, Mo.) per well of each six well plate, according to the manufacturer's instructions.
(§2) Real time reverse transcriptase polymerase chain reaction (RT-PCR): One microgram of total RNA was converted to cDNA using iScript cDNA Synthesis Kit (Bio-Rad, Hercules, Calif.), and qRTPCR was performed as described by (Mukherjea et al, 2006). Gene specific primer pairs were used for the various reactions and mRNA expression levels were normalized to the levels of GAPDH house keeping gene.
The rodent set of primers and siRNA were based on the homologous sequences in the rat and mouse cDNA sequences. The primers were purchased from Sigma Genosys (St. Louis, Mo.). Purified siRNA duplexes were purchased from Qiagen (Valencia, Calif.). Primers were as follows: Rodent NOX3 (sense): 5′-[…]-3′ (SEQ ID NO: 9) (antisense): 5′-[…]-3′ (SEQ ID NO: 10), Rodent-GAPDH (sense): 5′-[…]-3′ (SEQ ID NO: 11) (antisense): 5′-[…]-3′ (SEQ ID NO: 12), Rodent TRPV1 (sense): 5′-[…]-3′ (SEQ ID NO: 13), (antisense): 5-[…]-3′ (SEQ ID NO: 14), Rodent Rac-1 (sense): 5′-[…]-3′ (SEQ ID NO: 15), (antisense): 5′-[…]-3′ (SEQ ID NO: 16), Rodent gp-91 (sense) 5′-[…]-3′ (SEQ ID NO: 17), (antisense): 5′-[…]-3′ (SEQ ID NO: 18), and Rat p22 (sense): 5′-[…]-3′ (SEQ ID NO: 19), (antisense) 5′-[…]-3′ (SEQ ID NO: 20) […]

The next data set deals with TRPV1 mRNA. As to the kind of experiment: Real time RT-PCR of TRPV1 mRNA in UB/OC-1 cells. Conditions: cisplatin 2.5 μM, 24 h. The class given is cell-based, mouse. The procedure:
Immortalized organ of Corti cells derived from the mouse, UB/OC-1 cells, were obtained from Dr. Matthew Holley (Institute of Molecular Physiology, Addison Building, Western Bank, Sheffield, UK) and cultured in RPMI 1640 supplemented with 10% Fetalclone II (Hyclone, Logan, Utah) serum and penicillin-streptomycin. Cultures were grown in a 33° C. incubator in 10% CO2.
as §1, §2
The rodent set of primers and siRNA were based on the homologous sequences in the rat and mouse cDNA sequences. The primers were purchased from Sigma Genosys (St. Louis, Mo.). Purified siRNA duplexes were purchased from Qiagen (Valencia, Calif.).

In the case of `N.N.[Cl][Pt][Cl]` [cisplatin], in the data set with outer hair cells, the “percentage of outer hair cell loss, base” value turned out to be 42±9 percentage; the “percentage of outer hair cell loss, hook” value is listed as 72±14 percentage; the “percentage of outer hair cell loss, middle turn” value was determined as 22±2.7 percentage. Moreover, in the data set with UB-OC1 cells, the “ROS generation by DCF2DA fluorescence” value is given as “robust increase”. The “TRPV1 protein (~95 kDa band) in whole cochlear lysates” value in the data set with TRPV1 protein is on record as “increased TRPV1 protein”. In addition, the “increase in p22 expression” value in the data set with p22 is 8±1 fold. The “change in TRPV1 mRNA” value with TRPV1 mRNA is given as “significant increase; also recorded: Three fold increase”.
